Measurements published in patent US11254696B2, “Dianilinopyrimidine compound for inhibiting kinase activity” (Shenzhen Targetrx, Inc., priority 2017, dated 2022).

Assays:
[1] = tested on: BaF3 [EML4-ALK]; test: Cytotoxicity test (CellTiter-Glo), BaF3 [EML4-ALK]; type: cell-based; settings: Ba/F3 cells
Protocol: (§1) The in vitro anti-proliferative activity of the compounds of the present disclosure against three types of cells that are cultured in vitro was tested by CellTiter-Glo method.
(§2) Cell lines: BaF3 parental; BaF3 [EML4-ALK] (From WuXi PharmaTech) and BaF3 [EMF4-AFK F1196M] (From WuXi PharmaTech); wherein, BaF3 parental was cultured in RPMI1640 medium containing 10 ng/ml IL-3, 10% fetal bovine serum, 100 U/ml penicillin, and 100 μg/ml streptomycin, BaF3 [EMF4-AFK] and BaF3 [EMF4-AFK F1196M] were cultured in RPMI1640 medium containing 10% fetal bovine serum, 100 U/ml penicillin, and 100 μg/ml streptomycin.
(§3) Reagents and materials: RPMI-1640 (GIBCO, Cat. No. A10491-01); fetal bovine serum (GIBCO, Cat. No. 10099141); 0.25% trypsin-EDTA (GIBCO, Cat. No. 25200); penicillin-streptomycin, liquid (GIBCO, Cat. No. 15140-122); DMSO (Sigma, Cat. No. D2650); CellTiter-Glo Test Kit (Promega, Cat. No. G7572), and 96-well plate (Corning, Cat. No. 3365).
(§4) 1. The test compounds were dissolved in DMSO to make stock solutions and subjected to a series gradient dilution to give solutions with 10-fold working concentration.
(§5) 2. The cells in the logarithmic growth phase were diluted with the culture solution to adjust to the specific cell concentration, 90 μi of cell suspension was added to the 96-well plate to make the cell density reach the specified concentration. The plate was incubated in a incubator at 37° C., containing 5% carbon dioxide gas overnight.
(§6) 3. 10 μl drug solutions were added to each well of the 96-well plate inoculated with cells. 10 concentrations of the compounds were tested starting from the highest concentration of 20 μM with a 3-fold series gradient dilution in duplicate.
(§7) 4. After continuously cultured for 72 hours, the cells were detected by CellTiter-Glo for the cell viability. The dose-effect curve was made using GraphPad Prism software and IC50 was calculated.

[2] = biological target: T1, BaF3 [EML4-ALK] (Homo sapiens, UniProt Q9UM73); test: Cytotoxicity test (CellTiter-Glo), BaF3 [EML4-ALK]; type: cell-based; settings: 72 hours, CellTiter-Glo; read-out: IC50(nM) ALK (Ba/F3)
T1 construct: IC50(nM) ALK (Ba/F3); other: 72 hours, CellTiter-Glo; BaF3 [EML4-ALK]; fused on or other part: Q9HC35 (Echinoderm microtubule-associated protein-like 4)
T1 sequence (Q9UM73 whole entry, change not shown, the tested form may be a part): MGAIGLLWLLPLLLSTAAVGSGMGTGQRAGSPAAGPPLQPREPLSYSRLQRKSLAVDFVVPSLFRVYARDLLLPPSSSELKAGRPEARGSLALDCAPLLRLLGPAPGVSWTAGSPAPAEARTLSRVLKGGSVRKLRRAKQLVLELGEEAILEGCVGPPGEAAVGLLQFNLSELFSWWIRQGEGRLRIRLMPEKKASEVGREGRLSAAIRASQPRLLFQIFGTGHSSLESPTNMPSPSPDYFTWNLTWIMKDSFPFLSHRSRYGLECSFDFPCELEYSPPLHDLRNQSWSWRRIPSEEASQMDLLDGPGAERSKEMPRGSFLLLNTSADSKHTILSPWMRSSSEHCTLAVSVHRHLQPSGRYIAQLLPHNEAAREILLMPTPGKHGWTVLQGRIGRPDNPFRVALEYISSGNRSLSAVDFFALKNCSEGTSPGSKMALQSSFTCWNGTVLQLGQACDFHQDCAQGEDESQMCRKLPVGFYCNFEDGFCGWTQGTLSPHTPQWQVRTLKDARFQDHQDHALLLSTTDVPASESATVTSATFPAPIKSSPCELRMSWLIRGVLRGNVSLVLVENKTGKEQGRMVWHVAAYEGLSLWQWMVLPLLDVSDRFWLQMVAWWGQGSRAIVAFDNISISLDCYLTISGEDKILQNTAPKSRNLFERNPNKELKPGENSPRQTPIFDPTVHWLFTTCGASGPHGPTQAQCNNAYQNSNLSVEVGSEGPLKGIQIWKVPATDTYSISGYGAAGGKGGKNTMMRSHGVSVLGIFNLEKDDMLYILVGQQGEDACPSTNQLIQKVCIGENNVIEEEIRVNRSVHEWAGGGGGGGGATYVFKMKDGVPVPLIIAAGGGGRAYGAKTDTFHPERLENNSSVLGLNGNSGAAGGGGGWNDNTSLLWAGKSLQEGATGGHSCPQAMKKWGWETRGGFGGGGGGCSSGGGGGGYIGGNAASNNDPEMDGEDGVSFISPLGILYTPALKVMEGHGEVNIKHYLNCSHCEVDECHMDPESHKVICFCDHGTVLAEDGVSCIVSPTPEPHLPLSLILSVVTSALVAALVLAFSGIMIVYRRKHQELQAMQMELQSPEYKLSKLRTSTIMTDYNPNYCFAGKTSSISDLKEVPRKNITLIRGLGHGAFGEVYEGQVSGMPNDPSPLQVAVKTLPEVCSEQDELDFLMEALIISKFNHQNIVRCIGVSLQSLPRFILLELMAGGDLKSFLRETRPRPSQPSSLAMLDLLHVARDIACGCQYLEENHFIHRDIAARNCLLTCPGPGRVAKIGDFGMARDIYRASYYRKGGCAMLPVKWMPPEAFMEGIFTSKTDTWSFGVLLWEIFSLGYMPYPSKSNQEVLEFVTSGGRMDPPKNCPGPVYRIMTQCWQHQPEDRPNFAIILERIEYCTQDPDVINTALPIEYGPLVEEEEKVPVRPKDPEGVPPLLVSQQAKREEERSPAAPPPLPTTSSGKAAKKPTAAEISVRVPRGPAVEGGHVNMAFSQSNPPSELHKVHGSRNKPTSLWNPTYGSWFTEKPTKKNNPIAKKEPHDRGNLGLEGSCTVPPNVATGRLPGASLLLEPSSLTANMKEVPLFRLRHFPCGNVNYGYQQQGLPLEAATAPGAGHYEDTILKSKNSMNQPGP
Protocol: as §1, §2, §3, §4, §5, §6, §7

[3] = tested on: ALK[L1196M] (Ba/F3); test: Cytotoxicity test (CellTiter-Glo), BaF3 EML4-ALK L1196M; type: cell-based; settings: Ba/F3 cells
Protocol: as §1, §2, §3, §4, §5, §6, §7

[4] = biological target: T2, ALK[L1196M] (Ba/F3) (Homo sapiens, UniProt Q9UM73, L1196M, cells depend on it); test: as above; type: cell-based; settings: 72 hours, CellTiter-Glo; read-out: IC50(nM) ALK[L1196M] (Ba/F3)
T2 construct: IC50(nM) ALK[L1196M]; (Ba/F3); other: 72 hours, CellTiter-Glo; BaF3 [EMF4-AFK F1196M]; fused on or other part: Q9HC35 (Echinoderm microtubule-associated protein-like 4)
T2 sequence (Q9UM73 whole entry L1196M, the tested form may be a part): as the sequence (Q9UM73 whole entry, change not shown, the tested form may be a part) above, with L1196M counted along it
Protocol: as §1, §2, §3, §4, §5, §6, §7

[5] = biological target: ALK [L1196M] (Homo sapiens, UniProt Q9UM73, L1196M); test: Kinase inhibition assay, ALK [L1196M]; type: biochemical
Sequence of ALK [L1196M] (Q9UM73 19-1620 L1196M): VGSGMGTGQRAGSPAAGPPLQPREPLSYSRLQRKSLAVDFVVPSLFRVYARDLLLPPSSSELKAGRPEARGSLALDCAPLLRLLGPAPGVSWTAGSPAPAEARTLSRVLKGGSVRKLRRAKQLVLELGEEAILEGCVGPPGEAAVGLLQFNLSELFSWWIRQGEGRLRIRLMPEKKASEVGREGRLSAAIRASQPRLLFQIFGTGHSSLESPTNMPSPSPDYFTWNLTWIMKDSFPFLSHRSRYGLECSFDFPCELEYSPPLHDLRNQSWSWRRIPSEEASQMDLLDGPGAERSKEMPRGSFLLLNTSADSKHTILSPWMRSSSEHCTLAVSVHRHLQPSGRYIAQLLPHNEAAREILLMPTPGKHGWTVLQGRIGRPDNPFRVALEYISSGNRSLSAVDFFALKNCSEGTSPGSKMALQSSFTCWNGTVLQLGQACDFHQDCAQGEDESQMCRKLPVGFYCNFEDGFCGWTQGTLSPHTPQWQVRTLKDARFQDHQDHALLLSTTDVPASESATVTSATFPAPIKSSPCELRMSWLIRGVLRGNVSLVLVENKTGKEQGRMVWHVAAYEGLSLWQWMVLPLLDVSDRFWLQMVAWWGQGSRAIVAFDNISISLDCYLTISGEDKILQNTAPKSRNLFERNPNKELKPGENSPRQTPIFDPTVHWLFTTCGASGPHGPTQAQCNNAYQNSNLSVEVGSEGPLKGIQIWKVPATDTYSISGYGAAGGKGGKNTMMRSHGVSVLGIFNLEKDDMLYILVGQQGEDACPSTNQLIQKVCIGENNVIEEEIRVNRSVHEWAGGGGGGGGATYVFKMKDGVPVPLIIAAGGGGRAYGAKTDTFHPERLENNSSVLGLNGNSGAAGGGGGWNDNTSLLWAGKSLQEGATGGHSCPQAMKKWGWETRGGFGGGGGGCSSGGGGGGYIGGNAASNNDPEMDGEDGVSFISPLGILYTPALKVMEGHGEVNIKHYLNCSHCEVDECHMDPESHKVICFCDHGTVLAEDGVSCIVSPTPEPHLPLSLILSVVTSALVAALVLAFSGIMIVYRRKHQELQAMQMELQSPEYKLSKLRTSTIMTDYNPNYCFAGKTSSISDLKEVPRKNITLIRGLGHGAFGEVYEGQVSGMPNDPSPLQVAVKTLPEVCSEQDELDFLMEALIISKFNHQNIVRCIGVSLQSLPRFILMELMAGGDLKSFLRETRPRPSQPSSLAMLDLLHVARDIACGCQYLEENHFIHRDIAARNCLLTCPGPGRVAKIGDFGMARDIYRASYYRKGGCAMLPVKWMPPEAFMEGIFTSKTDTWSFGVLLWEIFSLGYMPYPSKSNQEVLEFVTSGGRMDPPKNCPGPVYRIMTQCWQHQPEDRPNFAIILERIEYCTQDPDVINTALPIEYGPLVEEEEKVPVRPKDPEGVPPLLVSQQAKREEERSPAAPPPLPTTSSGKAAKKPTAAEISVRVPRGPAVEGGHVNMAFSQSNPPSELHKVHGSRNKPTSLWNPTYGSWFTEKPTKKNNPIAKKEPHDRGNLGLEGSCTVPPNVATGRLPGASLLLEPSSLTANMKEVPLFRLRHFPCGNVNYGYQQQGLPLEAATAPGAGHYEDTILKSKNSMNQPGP
Protocol: (§8) Compound preparation: The test compounds were dissolved in DMSO to make 20 mM stock solutions. The compounds were diluted in DMSO to 0.1 mM (a dilution with 100 times the final concentration) before use, and a 3-fold series gradient dilution with 11 concentrations was made. Dilutions with 4 times of the final concentration were prepared by diluting with buffer when dosing.
(§9) Kinase assay: after preparing the buffer solution, the enzyme was mixed with pre-diluted compounds with different concentrations, and placed at room temperature for 30 minutes in duplicate. The corresponding substrate and ATP were added thereto and reacted at room temperature for 60 minutes (both a negative and a positive control were set). After the reaction, antibody was added for detection, and after incubation at room temperature for 60 minutes, Evnvision detection was carried out, and data was collected. Data was analyzed and fit according to XLfit5 software. IC50 was calculated by the following formula: (IC50=[(ABS test−ABS begin)/(ABS control−ABS begin)]×100).

[6] = Metabolic stability in human liver microsomes; type: in vitro ADME; settings: pH 7.4, 1 μM compound, 0.5 mg/mL protein; for microsomal CLint at 1 μM: read-out: CLint (uL/min/mg), Human liver microsome experiment; for half-life at 1 μM: read-out: t1/2 (min), Human liver microsome experiment
Protocol: (§10) Experiments in microsomes: Human liver microsomes: 0.5 mg/mL, Xenotech; Rat liver microsomes: 0.5 mg/mL, Xenotech; Coenzyme (NADPH/NADH): 1 mM, Sigma Life Science; Magnesium chloride: 5 mM, 100 mM phosphate buffer (pH 7.4).
(§11) Preparation of stock solution: Powder of the example compounds was accurately weighed and dissolved in DMSO to 5 mM. Preparation of phosphate buffer (100 mM, pH7.4): A pre-formulated 0.5M potassium dihydrogen phosphate (150 mL) was mixed with 0.5M dibasic potassium phosphate (700 mL). The pH of the mixture was adjusted to 7.4 with 0.5M dibasic potassium phosphate solution. The mixture was diluted 5-fold with ultrapure water before use, and magnesium chloride was added to obtain a phosphate buffer (100 mM) containing 100 mM potassium phosphate, 3.3 mM magnesium chloride, pH7.4. A NADPH regeneration system solution (containing 6.5 mM NADP, 16.5 mM G-6-P, 3 U/mL G-6-PD, 3.3 mM magnesium chloride) was prepared and placed on wet ice prior to use. Preparation of stop solution: acetonitrile solution containing 50 ng/mL propranolol hydrochloride and 200 ng/mL tolbutamide (internal standard). 25057.5 μL of phosphate buffer (pH 7.4) was taken into a 50 mL centrifuge tube, to which 812.5 μL human liver microsomes were added, and mixed to obtain a liver microsome dilution solution with a protein concentration of 0.625 mg/mL. 25057.5 μL of phosphate buffer (pH 7.4) was taken into a 50 mL centrifuge tube, to which 812.5 μL SD rat liver microsomes were added, and mixed to obtain a liver microsome dilution solution with a protein concentration of 0.625 mg/mL.
(§12) Incubation of the samples: The stock solution of the respective compound was respectively diluted to 0.25 mM with an aqueous solution containing 70% acetonitrile, and used as a working solution, ready for use. 398 μL of the dilution solution of human liver microsomes or rat liver microsome were added to a 96-well incubation plate (N=2), respectively, and 2 μL of 0.25 mM working solution was added and mixed.
(§13) Metabolic stability assay: 300 μL of pre-chilled stop solution was added to each well of a 96-well deep well plate and placed on ice as a stop plate. The 96 well incubation plate and NADPH regeneration system were placed in a 37° C. water bath box, shaken at 100 rpm and pre-incubated for 5 min. 80 μL of incubation solution was taken out from each well of the incubation plate and added to the stop plate, mixed, and replenished with 20 μL of NADPH regeneration system solution as a 0-min sample. 80 μL of NADPH regeneration system solution was added to each well of the incubation plate to start the reaction and start counting. […] Separately, 100 μL of the reaction solution was taken at 10, 30, and 90 min reaction, respectively, added to a stop plate, and vortexed for 3 minutes to terminate the reaction. The stop plate was centrifuged at 5000×g at 4° C. for 4 min. 100 μL of the supernatant was added to a 96-well plate to which 100 μL of distilled water was previously added, mixed, and analyzed by LC-MS/MS.
(§14) Data analysis: The peak areas of the corresponding compound and internal standard were detected by LC-MS/MS system, and the ratio of the peak area of the compound to the internal standard was calculated.

[7] = Metabolic stability in rat liver microsomes; type: in vitro ADME; settings: SD, pH 7.4, 1 μM compound, 0.5 mg/mL protein; for microsomal CLint at 1 μM: read-out: CLint (uL/min/mg), Rat liver microsome experiment; for half-life at 1 μM: read-out: t1/2 (min), Rat liver microsome experiment
Protocol: as §10, §11, §12, §13, §14

[8] = biological target: ALK [WT] (Homo sapiens, UniProt Q9UM73); test: Kinase inhibition assay, ALK [WT]; type: biochemical
Sequence of ALK [WT] (Q9UM73 19-1620): as the sequence (Q9UM73 19-1620 L1196M) above, with M1178L counted along it
Protocol: as §8, §9

[9] = tested on: BaF3 parental; test: Cytotoxicity test (CellTiter-Glo), BaF3 parental; type: cell-based; settings: Mus musculus, 72 hours, read-out: IC50(nM) parental (Ba/F3)
Protocol: as §1, §2, §3, §4, §5, §6, §7

Row | Compound | IC50 [5] [nM] | microsomal CLint at 1 μM [6] [µL/min/mg] | half-life at 1 μM [6] [min] | microsomal CLint at 1 μM [7] [µL/min/mg] | half-life at 1 μM [7] [min] | IC50 [8] [nM] | Selectivity parental/ALK [1] | GI50 [2] [nM] | Selectivity parental/ALK[L1196M] [3] | GI50 [4] [nM] | IC50 [9] [nM]
1 | COc1cc(C(C)CN(C)C)ccc1Nc1ncc(Cl)c(Nc2ccccc2P(C)(C)=O)n1 (stereo not drawn) [Example 17, (2-((5-chloro-2-((4-(1-(dimethylamino)propan-2-yl)-2-methoxyphenyl)amino)pyrimidin-4-yl)amino)phenyl)dimethylphosphine oxide] | 5 to 10 | 18.6 | 74.3 | 29.7 | 46.7 | 5 to 10 | 100 to 200 | 25 to 50 | 50 to 100 | 100 to 200 | ≥ 1000
2 | COc1cc(C(C)CN)ccc1Nc1ncc(Cl)c(Nc2ccccc2P(C)(C)=O)n1 (stereo not drawn) [Example 16, (2-((2-((4-(1-aminopropan-2-yl)-2-methoxyphenyl)amino)-5-chloropyrimidin-4-yl)amino)phenyl)dimethylphosphine oxide] | 5 to 10 | 21.5 | 64.6 | 11.7 | 118 | 5 to 10 | 50 to 100 | 200 to 1000 | <50 | 200 to 1000 | ≥ 1000
3 | COc1cc(CCN2CCN(C)CC2)ccc1Nc1ncc(Cl)c(Nc2ccccc2P(C)(C)=O)n1 [Example 5, (2-((5-chloro-2-((2-methoxy-4-(2-(4-methylpiperazin-1-yl)ethyl)phenyl)amino)pyrimidin-4-yl)amino)phenyl)dimethylphosphine oxide] | ≤ 2 | 17.3 | 80 | 35.9 | 38.6 | ≤ 2 | 200 to 500 | < 25 | 100 to 200 | 25 to 50 | ≥ 1000

The next lines start with results.

Row | IC50 [5] [nM] | microsomal CLint at 1 μM [6] [µL/min/mg] | half-life at 1 μM [6] [min] | microsomal CLint at 1 μM [7] [µL/min/mg] | half-life at 1 μM [7] [min] | IC50 [8] [nM] | Compound | Selectivity parental/ALK [1] | GI50 [2] [nM] | Selectivity parental/ALK[L1196M] [3] | GI50 [4] [nM] | IC50 [9] [nM]
4 | 5 to 10 | 23.8 | 58.2 | 7.2 | 194 | 2 to 5 | CNCC(C)(C)c1ccc(Nc2ncc(Cl)c(Nc3ccccc3P(C)(C)=O)n2)c(OC)c1 [Example 11, (2-((5-chloro-2-((2-methoxy-4-(2-methyl-1-(methylamino)propan-2-yl)phenyl)amino)pyrimidin-4-yl)amino)phenyl)dimethylphosphine oxide] | 100 to 200 | 25 to 50 | 50 to 100 | 50 to 100 | ≥ 1000
5 | 2 to 5 | 29.9 | 46.4 | 33.4 | 41.5 | ≤ 2 | COc1cc(C(C)(C)N(C)C)ccc1Nc1ncc(Cl)c(Nc2ccccc2P(C)(C)=O)n1 [Example 14, (2-((5-chloro-2-((4-(2-(dimethylamino)propan-2-yl)-2-methoxyphenyl)amino)pyrimidin-4-yl)amino)phenyl)dimethylphosphine oxide] | 100 to 200 | < 25 | <50 | 50 to 100 | ≥ 1000
6 | 2 to 5 | 11.3 | 123 | 9.9 | 140 | 2 to 5 | CNC(C)c1ccc(Nc2ncc(Cl)c(Nc3ccccc3P(C)(C)=O)n2)c(OC)c1 (stereo not drawn) [Example 9, (2-((5-chloro-2-((4-(1-(methylamino)ethyl)-2-methoxyphenyl)amino)pyrimidin-4-yl)amino)phenyl)dimethylphosphine oxide] | 50 to 100 | 50 to 100 | <50 | 200 to 1000 | ≥ 1000
